{"source": "paper PMC5218480", "about": "(PLoS ONE, 2017)", "system": "MV-4-11 cells", "assay": "Gene expression microarray analysis (Affymetrix PrimeView) and GSEA", "assay_type": "cell-based, human", "parameters": "RFU PODN (11730768_x_at) / Fold change /veh PODN (11730768_x_at) / RFU LINC00158 (11744669_a_at) / Fold change /veh LINC00158 (11744669_a_at) / RFU DUSP10 (11751237_a_at) / Fold change /veh DUSP10 (11751237_a_at) / RFU ID3 (11757404_x_at) / Fold change /veh ID3 (11757404_x_at) / RFU PLEKHG5 (11737974_s_at) / Fold change /veh PLEKHG5 (11737974_s_at) / RFU LRRC4B (11730491_at) / Fold change /veh LRRC4B (11730491_at) / RFU GIMAP4 (11747438_a_at) / Fold change /veh GIMAP4 (11747438_a_at) / RFU KRT8 (11758183_x_at) / Fold change /veh KRT8 (11758183_x_at) / RFU CNN1 (11734310_a_at) / Fold change /veh CNN1 (11734310_a_at) / RFU VPS37D (11726825_at) / Fold change /veh VPS37D (11726825_at) / RFU C10orf10 (11716522_x_at) / Fold change /veh C10orf10 (11716522_x_at) / RFU KIR2DL2 /// KIR2DL4 /// KIR2DL5A /// KIR2DL5B /// KIR2DS1 /// KIR2DS2 /// KIR2DS3 /// KIR2DS4 /// KIR3DL3 /// KIR3DL3 /// KIR3DS1 (11738374_at) / Fold change /veh KIR2DL2 /// KIR2DL4 /// KIR2DL5A /// KIR2DL5B /// KIR2DS1 /// KIR2DS2 /// KIR2DS3 /// KIR2DS4 /// KIR3DL3 /// KIR3DL3 /// KIR3DS1 (11738374_at) / RFU C1QL1 (11718748_at) / Fold change /veh C1QL1 (11718748_at) / RFU TMPRSS4 (11747572_a_at) / Fold change /veh TMPRSS4 (11747572_a_at) / RFU HAMP (11756126_x_at) / Fold change /veh HAMP (11756126_x_at) / RFU RNFT2 (11725882_a_at) / Fold change /veh RNFT2 (11725882_a_at) / RFU NR4A2 (11747474_a_at) / Fold change /veh NR4A2 (11747474_a_at) / RFU ABCC12 (11746883_a_at) / Fold change /veh ABCC12 (11746883_a_at) / RFU TMEM136 (11760407_x_at) / Fold change /veh TMEM136 (11760407_x_at) / RFU CLDN22 /// WWC2 (11732394_at) / Fold change /veh CLDN22 /// WWC2 (11732394_at) / RFU HLA-DPB1 (11760878_x_at) / Fold change /veh HLA-DPB1 (11760878_x_at) / RFU SPINT1 (11716480_a_at) / Fold change /veh SPINT1 (11716480_a_at) / RFU GAP43 (11754022_s_at) / Fold change /veh GAP43 (11754022_s_at) / RFU A4GNT (11735810_at) / Fold change /veh A4GNT (11735810_at) / RFU PRB3 (11715151_x_at) / Fold change /veh PRB3 (11715151_x_at) / RFU TUBB4B (11761932_at) / Fold change /veh TUBB4B (11761932_at) / RFU CAPN14 (11732068_a_at) / Fold change /veh CAPN14 (11732068_a_at) / RFU TMCC2 (11721928_a_at) / Fold change /veh TMCC2 (11721928_a_at) / RFU IRGQ (11745062_a_at) / Fold change /veh IRGQ (11745062_a_at) / RFU FAM174B (11720279_a_at) / Fold change /veh FAM174B (11720279_a_at) / RFU TMPRSS4 (11748680_a_at) / Fold change /veh TMPRSS4 (11748680_a_at) / RFU FAM212B (11763350_a_at) / Fold change /veh FAM212B (11763350_a_at) / RFU PLEKHG5 (11743358_a_at) / Fold change /veh PLEKHG5 (11743358_a_at) / RFU ZSCAN30 (11745921_a_at) / Fold change /veh ZSCAN30 (11745921_a_at) / RFU CMKLR1 (11741424_a_at) / Fold change /veh CMKLR1 (11741424_a_at) / RFU LOC101060620 /// MAPK8IP1 (11723275_at) / Fold change /veh LOC101060620 /// MAPK8IP1 (11723275_at) / RFU SPTSSB (11747773_x_at) / Fold change /veh SPTSSB (11747773_x_at) / RFU PRSS12 (11739890_at) / Fold change /veh PRSS12 (11739890_at) / RFU BIN1 (11741810_x_at) / Fold change /veh BIN1 (11741810_x_at) / RFU WNT11 (11732464_a_at) / Fold change /veh WNT11 (11732464_a_at) / RFU C10orf10 (11716521_a_at) / Fold change /veh C10orf10 (11716521_a_at) / RFU C5orf56 (11738089_at) / Fold change /veh C5orf56 (11738089_at) / RFU CYB561 (11721691_x_at) / Fold change /veh CYB561 (11721691_x_at) / RFU ANKRD19P (11752326_a_at) / Fold change /veh ANKRD19P (11752326_a_at) / RFU OR2T12 /// OR2T33 /// OR2T8 (11738714_s_at) / Fold change /veh OR2T12 /// OR2T33 /// OR2T8 (11738714_s_at) / RFU VCAN (11748164_a_at) / Fold change /veh VCAN (11748164_a_at) / RFU JSRP1 (11732532_at) / Fold change /veh JSRP1 (11732532_at) / RFU KRTAP10-11 (11738290_x_at) / Fold change /veh KRTAP10-11 (11738290_x_at) / RFU MYO3A (11730013_a_at) / Fold change /veh MYO3A (11730013_a_at) / RFU EBF3 (11725865_a_at) / Fold change /veh EBF3 (11725865_a_at) / RFU CAMK2N1 (11719241_x_at) / Fold change /veh CAMK2N1 (11719241_x_at) / RFU C5orf56 (11738088_a_at) / Fold change /veh C5orf56 (11738088_a_at) / RFU OLFML3 (11715873_a_at) / Fold change /veh OLFML3 (11715873_a_at) / RFU LOC100653217 /// NTM (11731650_a_at) / Fold change /veh LOC100653217 /// NTM (11731650_a_at) / RFU MAPK11 (11762145_a_at) / Fold change /veh MAPK11 (11762145_a_at) / RFU FIZ1 (11724087_x_at) / Fold change /veh FIZ1 (11724087_x_at) / RFU OASL (11726364_x_at) / Fold change /veh OASL (11726364_x_at) / RFU SOX15 (11748057_x_at) / Fold change /veh SOX15 (11748057_x_at) / RFU CD79A (11719716_a_at) / Fold change /veh CD79A (11719716_a_at) / RFU HIST1H1D (11736915_at) / Fold change /veh HIST1H1D (11736915_at) / RFU CASKIN2 (11723855_a_at) / Fold change /veh CASKIN2 (11723855_a_at) / RFU LOC730098 (11760151_x_at) / Fold change /veh LOC730098 (11760151_x_at) / RFU OR4N2 (11742367_at) / Fold change /veh OR4N2 (11742367_at) / RFU PRRT2 (11749266_a_at) / Fold change /veh PRRT2 (11749266_a_at) / RFU SNX32 (11753110_a_at) / Fold change /veh SNX32 (11753110_a_at) / RFU CDHR5 (11726645_a_at) / Fold change /veh CDHR5 (11726645_a_at) / RFU RCAN1 (11760418_a_at) / Fold change /veh RCAN1 (11760418_a_at) / RFU FAM167A (11723789_a_at) / Fold change /veh FAM167A (11723789_a_at) / RFU FAM26E (11764081_at) / Fold change /veh FAM26E (11764081_at) / RFU ISYNA1 (11749810_s_at) / Fold change /veh ISYNA1 (11749810_s_at) / RFU ACY1 (11761880_at) / Fold change /veh ACY1 (11761880_at) / RFU 11764098_at / Fold change /veh 11764098_at / RFU SAMD14 (11745864_x_at) / Fold change /veh SAMD14 (11745864_x_at) / RFU NPB (11741838_a_at) / Fold change /veh NPB (11741838_a_at) / RFU TMPRSS6 (11731388_a_at) / Fold change /veh TMPRSS6 (11731388_a_at) / RFU KRTAP10-2 (11738614_at) / Fold change /veh KRTAP10-2 (11738614_at) / RFU ARHGAP8 /// PRR5-ARHGAP8 (11727945_x_at) / Fold change /veh ARHGAP8 /// PRR5-ARHGAP8 (11727945_x_at) / RFU KRTAP5-7 /// NADSYN1 (11734609_at) / Fold change /veh KRTAP5-7 /// NADSYN1 (11734609_at) / RFU RASL12 (11751679_a_at) / Fold change /veh RASL12 (11751679_a_at) / RFU CDKN2B (11736163_a_at) / Fold change /veh CDKN2B (11736163_a_at) / RFU PRF1 (11729649_at) / Fold change /veh PRF1 (11729649_at) / RFU, ZNF638 /// ZNF638-IT1 / Fold change vs veh, ZNF638 /// ZNF638-IT1 / RFU, PANK3 / Fold change vs veh, PANK3 / RFU, SH3YL1 / Fold change vs veh, SH3YL1 / RFU, ZEB2 / Fold change vs veh, ZEB2 / RFU, NRIP1 / Fold change vs veh, NRIP1 / RFU, PTTG1IP / Fold change vs veh, PTTG1IP / RFU, CAPN2 / Fold change vs veh, CAPN2 / RFU, MED14 / Fold change vs veh, MED14 / RFU, SNORA58 / Fold change vs veh, SNORA58 / RFU, C1orf63 / Fold change vs veh, C1orf63 / RFU, LRRFIP1 / Fold change vs veh, LRRFIP1 / RFU, NDUFAF7 / Fold change vs veh, NDUFAF7 / RFU, SLC12A2 / Fold change vs veh, SLC12A2 / RFU, IBTK / Fold change vs veh, IBTK / RFU, ESF1 / Fold change vs veh, ESF1 / Fold change vs veh, TMEM50B / RFU, TAOK1 / Fold change vs veh, TAOK1 / RFU, ACBD3 / Fold change vs veh, ACBD3 / RFU, TMA16 / Fold change vs veh, TMA16 / RFU, RWDD3 / Fold change vs veh, RWDD3 / RFU, BCAT1 / Fold change vs veh, BCAT1 / RFU, EDEM3 / Fold change vs veh, EDEM3 / RFU, TMEM33 / Fold change vs veh, TMEM33 / RFU, WDR75 / Fold change vs veh, WDR75 / RFU, AHCTF1 / Fold change vs veh, AHCTF1 / RFU, TFRC / Fold change vs veh, TFRC / RFU, ZDHHC17 / Fold change vs veh, ZDHHC17 / RFU, NOM1 / Fold change vs veh, NOM1 / RFU, ARL8B / Fold change vs veh, ARL8B / RFU, ZBTB11 / Fold change vs veh, ZBTB11 / RFU, TAMM41 / Fold change vs veh, TAMM41 / RFU, KIAA1704 /// LOC100996395 / Fold change vs veh, KIAA1704 /// LOC100996395 / RFU, ING1 / Fold change vs veh, ING1 / RFU, TRMT61B / Fold change vs veh, TRMT61B / RFU, FUBP3 / Fold change vs veh, FUBP3 / RFU, TP53 / Fold change vs veh, TP53 / RFU, TNKS2 / Fold change vs veh, TNKS2 / RFU, ZFP14 / Fold change vs veh, ZFP14 / RFU, ACTR2 / Fold change vs veh, ACTR2 / RFU, PPP3R1 / Fold change vs veh, PPP3R1 / RFU, PIK3R1 / Fold change vs veh, PIK3R1 / RFU, HNRNPA1 / Fold change vs veh, HNRNPA1 / RFU, RNF170 / Fold change vs veh, RNF170 / RFU, ZNF28 / Fold change vs veh, ZNF28 / RFU, RNGTT / Fold change vs veh, RNGTT / RFU, OGT / Fold change vs veh, OGT / RFU, BRD1 / Fold change vs veh, BRD1 / RFU, MARS / Fold change vs veh, MARS / RFU, ZNF655 / Fold change vs veh, ZNF655 / RFU, FAHD1 / Fold change vs veh, FAHD1 / RFU, BDP1 / Fold change vs veh, BDP1 / RFU, LRRCC1 / Fold change vs veh, LRRCC1 / RFU, ARID1A / Fold change vs veh, ARID1A / RFU, ZNF146 / Fold change vs veh, ZNF146 / RFU, ZNF330 / Fold change vs veh, ZNF330 / RFU, GPN3 / Fold change vs veh, GPN3 / RFU, C9orf123 / Fold change vs veh, C9orf123 / RFU, N4BP2L2 / Fold change vs veh, N4BP2L2 / RFU, ARFIP1 / Fold change vs veh, ARFIP1 / RFU, FAM179B / Fold change vs veh, FAM179B / RFU, BCL10 / Fold change vs veh, BCL10 / RFU, UHRF1BP1L / Fold change vs veh, UHRF1BP1L / RFU, BET1 / Fold change vs veh, BET1 / RFU, CNOT2 / Fold change vs veh, CNOT2 / RFU, ZNF268 / Fold change vs veh, ZNF268 / Fold change vs veh, ZNF507 / RFU, DGCR2 / Fold change vs veh, DGCR2 / RFU, WDSUB1 / Fold change vs veh, WDSUB1 / Fold change vs veh, HSP90B1 /// MIR3652 / RFU, ADSS / Fold change vs veh, ADSS / RFU, GK / Fold change vs veh, GK / RFU, ZNF148 / Fold change vs veh, ZNF148 / RFU, TAF9 / Fold change vs veh, TAF9 / RFU, SLC1A5 / Fold change vs veh, SLC1A5 / RFU, SLMO2 / Fold change vs veh, SLMO2 / RFU, ABCC4 / Fold change vs veh, ABCC4 / RFU, LOC101060439 /// RAP1B / Fold change vs veh, LOC101060439 /// RAP1B / RFU, RFX7 / Fold change vs veh, RFX7 / RFU, GTPBP10 / Fold change vs veh, GTPBP10 / RFU, CNEP1R1 / Fold change vs veh, CNEP1R1 / RFU, BIVM-ERCC5 /// ERCC5 / Fold change vs veh, BIVM-ERCC5 /// ERCC5 / RFU, ILF3 / Fold change vs veh, ILF3 / RFU 11762660_at / Fold change /veh 11762660_at / RFU VCAN (11757783_s_at) / Fold change /veh VCAN (11757783_s_at) / RFU DDX43 (11728927_at) / Fold change /veh DDX43 (11728927_at) / RFU KRT8 (11758188_x_at) / Fold change /veh KRT8 (11758188_x_at) / RFU NKD1 (11759106_at) / Fold change /veh NKD1 (11759106_at) / RFU SRD5A1 (11742802_a_at) / Fold change /veh SRD5A1 (11742802_a_at) / RFU TPSAB1 /// TPSB2 (11721975_s_at) / Fold change /veh TPSAB1 /// TPSB2 (11721975_s_at) / RFU GSTM3 (11746129_a_at) / Fold change /veh GSTM3 (11746129_a_at) / RFU IL23R (11737362_x_at) / Fold change /veh IL23R (11737362_x_at) / RFU TMEM51 (11727254_a_at) / Fold change /veh TMEM51 (11727254_a_at) / RFU PIWIL2 (11732686_x_at) / Fold change /veh PIWIL2 (11732686_x_at) / RFU ORM1 (11744905_x_at) / Fold change /veh ORM1 (11744905_x_at) / RFU CCDC152 (11743942_at) / Fold change /veh CCDC152 (11743942_at) / RFU ECM1 (11717891_a_at) / Fold change /veh ECM1 (11717891_a_at) / RFU IL23R (11748794_a_at) / Fold change /veh IL23R (11748794_a_at) / RFU TNFAIP8L3 (11732012_x_at) / Fold change /veh TNFAIP8L3 (11732012_x_at) / RFU MBOAT4 (11741988_at) / Fold change /veh MBOAT4 (11741988_at) / RFU 11764193_at / Fold change /veh 11764193_at / RFU TMEM53 (11763286_at) / Fold change /veh TMEM53 (11763286_at) / RFU MAGEB2 (11727129_at) / Fold change /veh MAGEB2 (11727129_at) / RFU TMEM200A (11744735_a_at) / Fold change /veh TMEM200A (11744735_a_at) / RFU CCDC152 (11751479_a_at) / Fold change /veh CCDC152 (11751479_a_at) / RFU FAM211A (11726209_a_at) / Fold change /veh FAM211A (11726209_a_at) / RFU RGS16 (11746705_a_at) / Fold change /veh RGS16 (11746705_a_at) / RFU VCAN (11755009_s_at) / Fold change /veh VCAN (11755009_s_at) / RFU RHOB (11743442_s_at) / Fold change /veh RHOB (11743442_s_at) / RFU RGS16 (11720943_a_at) / Fold change /veh RGS16 (11720943_a_at) / RFU RGS16 (11720944_at) / Fold change /veh RGS16 (11720944_at) / RFU, VPS4B / Fold change vs veh, VPS4B / RFU, CREB1 / Fold change vs veh, CREB1 / RFU, DNAJC13 / Fold change vs veh, DNAJC13 / RFU, GNAQ / Fold change vs veh, GNAQ / RFU, CDK5R1 / Fold change vs veh, CDK5R1 / RFU, ZRANB3 / Fold change vs veh, ZRANB3 / RFU, CUL4A / Fold change vs veh, CUL4A / RFU, CCNY / Fold change vs veh, CCNY / RFU, UFL1 / Fold change vs veh, UFL1 / RFU, COG3 / Fold change vs veh, COG3 / RFU, DIAPH2 / Fold change vs veh, DIAPH2 / RFU, SKA2 / Fold change vs veh, SKA2 / RFU, AFF3 / Fold change vs veh, AFF3 / RFU, LMF1 / Fold change vs veh, LMF1 / RFU, IPO11 / Fold change vs veh, IPO11 / RFU, DFFB / Fold change vs veh, DFFB / RFU, FOXP1 / Fold change vs veh, FOXP1 / RFU, CARD8 / Fold change vs veh, CARD8 / RFU, STRN3 / Fold change vs veh, STRN3 / RFU, ADK / Fold change vs veh, ADK / RFU, RASSF2 / Fold change vs veh, RASSF2 / RFU, WIPF1 / Fold change vs veh, WIPF1 / RFU, LARP1B / Fold change vs veh, LARP1B / RFU, RASA1 / Fold change vs veh, RASA1 / RFU, RB1 / Fold change vs veh, RB1 / RFU, PPFIA1 / Fold change vs veh, PPFIA1 / RFU, MAT2A / Fold change vs veh, MAT2A / RFU, CCT5 / Fold change vs veh, CCT5 / RFU, WDR92 / Fold change vs veh, WDR92 / RFU, CUX1 / Fold change vs veh, CUX1 / RFU, TTC7A / Fold change vs veh, TTC7A / RFU, TMEM135 / Fold change vs veh, TMEM135 / RFU, DEPTOR / Fold change vs veh, DEPTOR / RFU, CPM / Fold change vs veh, CPM / RFU, DNAJB6 / Fold change vs veh, DNAJB6 / RFU, CACNA2D3 / Fold change vs veh, CACNA2D3 / RFU, DTX4 / Fold change vs veh, DTX4 / RFU, TFCP2 / Fold change vs veh, TFCP2 / RFU, GMCL1 /// GMCL1P1 / Fold change vs veh, GMCL1 /// GMCL1P1 / RFU, AEBP2 / Fold change vs veh, AEBP2 / RFU, SNHG1 /// SNORD22 /// SNORD25 /// SNORD26 /// SNORD27 /// SNORD28 /// SNORD29 /// SNORD31 / Fold change vs veh, SNHG1 /// SNORD22 /// SNORD25 /// SNORD26 /// SNORD27 /// SNORD28 /// SNORD29 /// SNORD31 / Fold change (Aza/veh), C12orf56 (ProbeSet 11735607_a_at) / Fold change (ACY-1035/veh), C12orf56 (ProbeSet 11735607_a_at) / Fold change (Aza/veh), FGFR1OP (ProbeSet 11751329_s_at) / Fold change (ACY-1035/veh), FGFR1OP (ProbeSet 11751329_s_at) / Fold change (Aza/veh), VPS36 (ProbeSet 11739960_a_at) / Fold change (ACY-1035/veh), VPS36 (ProbeSet 11739960_a_at) / RFU SYPL1 (11715823_x_at) / Fold change /veh SYPL1 (11715823_x_at) / RFU IGFBP7 (11715501_s_at) / Fold change /veh IGFBP7 (11715501_s_at) / RFU REEP3 (11722064_at) / Fold change /veh REEP3 (11722064_at) / RFU IGLL1 (11728026_x_at) / Fold change /veh IGLL1 (11728026_x_at): dose or concentration left out as unconfirmed", "conditions": "ProbeSet 11716331_a_at; LIST D", "data": [{"compound": "Nc1ccc(-c2cccs2)cc1NC(=O)c1ccc2c(c1)cc(C1CC1)n2CCN1CCOCC1", "note": "[ACY-1035]", "values": [{"measurement": "RFU, DNAJB6", "value": 348.58, "unit": "RFU"}]}]}
